{"source": "patent US20250250302A1", "about": "“SYNTHESIS OF SELF-ASSEMBLING ARTIFICIAL PROTEINS UTILIZING A HOST-GUEST SYSTEM AND USES THEREOF” (Indian Institute of Science Education and Research, Pune …, priority 2024, published 2025)", "assay": "solubility test of α, β, and γcyclodextrin in water", "settings": "compared with β cyclodextrin", "data": [{"smiles": "OC[C@H]1O[C@@H]2O[C@H]3[C@H](O)[C@@H](O)[C@@H](O[C@H]4[C@H](O)[C@@H](O)[C@@H](O[C@H]5[C@H](O)[C@@H](O)[C@@H](O[C@H]6[C@H](O)[C@@H](O)[C@@H](O[C@H]7[C@H](O)[C@@H](O)[C@@H](O[C@H]1[C@H](O)[C@H]2O)O[C@@H]7CO)O[C@@H]6CO)O[C@@H]5CO)O[C@@H]4CO)O[C@@H]3CO", "note": "[a]", "values": [{"measurement": "solubility in water", "value": "better solubility in water compared to β cyclodextrin"}]}]}
